The text below walks through data of US11807634B2, “Cyclopropyl dihydroquinoline sulfonamide compounds” (AMGEN INC., priority 2020, dated 2023).

The data set relates to CYP3A4. The experiment in a line: Human CYP 3A4 induction assay (mRNA, cryopreserved human hepatocytes). The format is in vitro ADME. The note with it: human hepatocytes, 10 uM test compound, 72 hours, mRNA, percent of control (rifampin positive control). The procedure:
Human CYP 3A4 Induction Assay
Cryopreserved human hepatocytes were seeded in 96-well collagen coated plates at 70,000 cells per well in hepatocyte plating media (HPM, final concentrations: 1× Dulbecco's Modified Eagle's Medium, 0.1 μM dexamethasone, 10% fetal bovine serum, 1× ITS, 1×PSG) followed by incubation at 37° C. under 5% CO2 and 90% relative humidity for 2 days to allow hepatocytes to form a confluent layer. On Day 3, hepatocytes were treated with either test compound or rifampin (20 μM, positive control for CYP3A induction) prepared in hepatocyte incubation media ((HIM, final concentrations: 1× William's Medium E, 0.1 μM dexamethasone, 1×ITS, 1×PSG). Treatment was performed for 72 hours with either 2 concentrations (2 μM or 10 μM) or a range of concentrations (0.001 μM to 100 μM) of the test compound to obtain full dose-response curve. Fresh media containing the relevant concentrations of the test compound was replaced every day until the samples were processed. After 72 hours of incubation, samples were processed for mRNA analysis using bDNA technology using manufacturer's instructions (Affymetrix, Fremont, Calif.). Cell viability was tested at the end of the experiment using MTT assay kit (Roche Diagnostics, Basel, Switzerland). Data was analyzed and presented as percent of control (POC) and Emax and EC50 obtained when appropriate according to guidance from Center for Drug Evaluation and Research (CDER), 2006, Guidance for Industry, Drug Interaction Studies—Study Design, Data Analysis, and Implications for Dosing and Labeling.
Cryopreserved human hepatocytes were seeded in 96-well collagen coated plates at 70,000 cells per well in hepatocyte plating media (HPM, final concentrations: 1× Dulbecco's Modified Eagle's Medium, 0.1 μM dexamethasone, 10% fetal bovine serum, 1×ITS, 1×PSG) followed by incubation at 37° C. under 5% CO2 and 90% relative humidity for 2 days to allow hepatocytes to form a confluent layer. On Day 3, hepatocytes were treated with either test compound or rifampin (20 μM, positive control for CYP3A induction) prepared in hepatocyte incubation media ((HIM, final concentrations: 1× William's Medium E, 0.1 μM dexamethasone, 1×ITS, 1×PSG). Treatment was performed for 72 hours with either 2 concentrations (2 μM or 10 μM) or a range of concentrations (0.001 μM to 100 μM) of the test compound to obtain full dose-response curve. Fresh media containing the relevant concentrations of the test compound was replaced every day until the samples were processed. After 72 hours of incubation, samples were processed for mRNA analysis using bDNA technology using manufacturer's instructions (Affymetrix, Fremont, Calif.). Cell viability was tested at the end of the experiment using MTT assay kit (Roche Diagnostics, Basel, Switzerland). Data was analyzed and presented as percent of control (POC) and Emax and EC50 obtained when appropriate, as described in Halladay, J. et al, 2012, An “all-inclusive” 96-well cytochrome P450 induction method: Measuring enzyme activity, mRNA levels, protein levels, and cytotoxicity from one well using cryopreserved human hepatocytes, Pharmacological and Toxicological Methods, 66:270-275.
The cytochrome P450 (CYP) is a well-known superfamily of enzymes that are responsible for the oxidative and reductive metabolic transformation of medications used in clinical practice. In addition, the CYP enzymes are commonly associated with causing many clinically relevant drug-drug interactions. Of the CYP enzymes, CYP3A4 is not only the most prevalent CYP enzyme in the liver and intestine, but is responsible for metabolism and elimination of approximately 50% of marketed drugs. In addition, CYP3A4 activity can be induced (or increased) or inhibited (decreased) in response to administration of certain drugs, thereby affecting concentrations of their own or certain concomitant drugs present in the body. […]
In the case of `COc1cc([C@@H]2C[C@H]2C(F)(F)F)c(C)cc1-n1c(=O)ccc2cc(S(=O)(=O)Nc3ncccn3)ccc21` (atropisomer, axis not shown; (P)) [Example 28, (P)-1-(2-methoxy-5-methyl-4-((1R,2R)-2-(trifluoromethyl)cyclopropyl)phenyl)-2-oxo-N-(pyrimidin-2-yl)-1,2-dihydroquinoline-6-sulfonamide], the “CYP3A4 mRNA Induct Hu 10 uM POC” value is 23.36%. Then `COc1cc([C@H]2C[C@@H]2C(F)(F)F)c(C)cc1-n1c(=O)ccc2cc(S(=O)(=O)Nc3ncccn3)ccc21` (atropisomer, axis not shown; (P)) [Example 29, (P)-1-(2-methoxy-5-methyl-4-((1S,2S)-2-(trifluoromethyl)cyclopropyl)phenyl)-2-oxo-N-(pyrimidin-2-yl)-1,2-dihydroquinoline-6-sulfonamide], with 74.53%; and `COc1cc([C@H]2C[C@@H]2C2CC2)c(F)cc1-n1c(=O)ccc2cc(S(=O)(=O)Nc3ccon3)ccc21` (atropisomer, axis not shown; (P)) [Example 31, (P)-1-(4-((1R,2S)-[1,1′-bi(cyclopropan)]-2-yl)-5-fluoro-2-methoxyphenyl)-N-(isoxazol-3-yl)-2-oxo-1,2-dihydroquinoline-6-sulfonamide], with 100.7%.

Take `COc1cc([C@@H]2C[C@H]2C(F)(F)F)c(F)cc1-n1c(=O)ccc2cc(S(=O)(=O)Nc3ncns3)ccc21` (atropisomer, axis not shown; (P)) [Example 34, (P)-1-(5-fluoro-2-methoxy-4-((1R,2R)-2-(trifluoromethyl)cyclopropyl)phenyl)-2-oxo-N-(1,2,4-thiadiazol-5-yl)-1,2-dihydroquinoline-6-sulfonamide]: the “CYP3A4 mRNA Induct Hu 10 uM POC” value was determined as 12.69%. The figure for `COc1cc([C@@H]2C[C@H]2C(F)(F)F)c(F)cc1-n1c(=O)ccc2cc(S(=O)(=O)Nc3ncco3)ccc21` (atropisomer, axis not shown; (P)) [Example 35, (P)-1-(5-fluoro-2-methoxy-4-((1R,2R)-2-(trifluoromethyl)cyclopropyl)phenyl)-N-(oxazol-2-yl)-2-oxo-1,2-dihydroquinoline-6-sulfonamide] is 53.28%; for `COc1cc([C@H]2C[C@@H]2C(F)(F)F)c(F)cc1-n1c(=O)ccc2cc(S(=O)(=O)Nc3ncco3)ccc21` (atropisomer, axis not shown; (P)) [Example 36, (P)-1-(5-fluoro-2-methoxy-4-((1S,2S)-2-(trifluoromethyl)cyclopropyl)phenyl)-N-(oxazol-2-yl)-2-oxo-1,2-dihydroquinoline-6-sulfonamide] it is 102.8%; for `COc1cc([C@H]2C[C@@H]2C(F)(F)F)c(C#N)cc1-n1c(=O)ccc2cc(S(=O)(=O)Nc3ccon3)ccc21` (atropisomer, axis not shown; (P)) [Example 37, (P)-1-(5-cyano-2-methoxy-4-((1S,2S)-2-(trifluoromethyl)cyclopropyl)phenyl)-N-(isoxazol-3-yl)-2-oxo-1,2-dihydroquinoline-6-sulfonamide] it is 16.39%. Regarding `COc1cc([C@@H]2C[C@H]2C(F)(F)F)ccc1-n1c(=O)ccc2cc(S(=O)(=O)Nc3ccon3)ccc21` (atropisomer, axis not shown; (P)) [Example 38, (P)-N-(isoxazol-3-yl)-1-(2-methoxy-4-((1R,2R)-2-(trifluoromethyl)cyclopropyl)phenyl)-2-oxo-1,2-dihydroquinoline-6-sulfonamide], the “CYP3A4 mRNA Induct Hu 10 uM POC” value worked out at 29.06%. Then `COc1cc([C@H]2C[C@@H]2C(F)(F)F)ccc1-n1c(=O)ccc2cc(S(=O)(=O)Nc3ccon3)ccc21` (atropisomer, axis not shown; (P)) [Example 39, (P)-N-(isoxazol-3-yl)-1-(2-methoxy-4-((1S,2S)-2-(trifluoromethyl)cyclopropyl)phenyl)-2-oxo-1,2-dihydroquinoline-6-sulfonamide], with 38.35%.
